Source: patent publication US10195285B2, “AGTR1 aptamer-anticancer drug complex for cancer cell chemotherapy” (KOREA UNIVERSITY RESEARCH AND BUSINESS FOUNDATION, priority 2016, dated 2019)
{SH} = thiol group (3'-OH replaced by SH), used for disulfide linkage to a drug

Experiments:
[1] = tested on: AGTR1-positive breast cancer MCF7 cell line (MCF7-AGTR1); assay: p-His3 (mitotic arrest marker) ICC/confocal in co-culture, AGTR1-positive cells; assay type: cell-based, human; conditions: 10 nM, 24 hr; co-culture 1:1 with BT474; HER2-not-expressed cells = MCF7-AGTR1
Method: (§1) (1) As produced in Example 1, the AGTR1-positive breast cancer MCF7 cell line (MCF7-AGTR1) and the AGTR1-negative breast cancer BT474 cell line (typically, MCF7 is a HER2-negative breast cancer cell line and BT474 is a HER2-positive breast cancer cell line) were co-cultured at a ratio of 1:1, and HER2 and a mitotic arrest marker, namely phospho-Histone H3 (p-[…]), were stained with ICC, the nuclei of which were stained with DAPI, and were then treated with a control (DMSO), DM1, and Aptamer-DM1 at a concentration of 10 nM for 24 hr. Thereafter, the nuclei (blue), p-[…] (green), and HER2 (red) were imaged using a confocal microscope. The number of cells in which p-[…] was detected was quantified based on whether or not AGTR1 was expressed. During the staining procedure, the MCF7-AGTR1 and BT474 cells cultured on 8-well chamber slides were fixed with 4% paraformaldehyde, washed with PBS, and cultured for 10 min with 0.2% Triton X-100. Thereafter, the cells were cultured overnight at 4° C. with primary antibodies in an antibody dilution buffer and then cultured at room temperature for 2 hr with fluorescence-conjugated secondary antibodies. Thereafter, the cells were mounted on ProLong Gold Antifade Reagent containing DAPI (4',6'-diamidine-2'-phenylindole dihydrochloride).

[2] = tested on: AGTR1-negative breast cancer BT474 cell line; assay: p-His3 (mitotic arrest marker) ICC/confocal in co-culture, AGTR1-negative cells; assay type: cell-based, human; conditions: 10 nM, 24 hr; co-culture 1:1 with MCF7-AGTR1; HER2-expressed cells = BT474
Method: as §1

[3] = tested on: AGTR1-positive breast cancer cell line (MCF7-AGTR1); assay: Apoptosis rate (sub-G1%) by PI DNA content flow cytometry, AGTR1-positive cells; assay type: cell-based, human; conditions: 10 nM, 48 hr
Method: (§2) (1) The AGTR1-positive breast cancer cell line (MCF7-AGTR1) and the AGTR1-negative breast cancer cell line (BT474) were treated with a control (DMSO), DM1, Aptamer, and Aptamer-DM1 at a concentration of 10 nM for 48 hr, after which the cells were acquired and fixed with 95% ethanol containing 0.5% Tween-20 for 24 hr and cultured for 30 min with propidium iodide (PI, 50 μg/ml) and RNase (50 μg/ml). Thereafter, the apoptosis rate (sub-G1%) of cancer cells was measured through DNA content analysis using flow cytometry.
(§3) (2) Typically, the cell cycle includes, depending on the amount of DNA in cells, G1 (cell growth phase), S (cell replication phase), and G2/M (cell mitotic phase). […] The results of apoptosis are represented by the percentage of sub-G1 in the cell cycle.

[4] = tested on: AGTR1-negative breast cancer cell line (BT474); assay: Apoptosis rate (sub-G1%) by PI DNA content flow cytometry, AGTR1-negative cells; assay type: cell-based, human; conditions: 10 nM, 48 hr
Method: as §2, §3

[5] = tested on: MCF7-AGTR1 cancer cells; assay: Tumor volume in breast cancer disease animal model; assay type: in vivo, BALB/c nude mice; conditions: 0.75 mg/kg intraperitoneally three times a week, measured for 3 weeks
Method: (1) Starting from the 4th day after MCF7-AGTR1 cancer cells (3×10^6 cells) were inoculated into the fourth mammary fat pads of immunodeficient 6-week-old female BALB/c nude mice, Aptamer (0.75 mg/kg) and Aptamer-DM1 (0.5 mg/kg, 0.75 mg/kg) were intraperitoneally administered three times a week. Then, the tumor volume was measured for 3 weeks. The body weights of mice were measured for 3 weeks. The tumor volume (V) was measured using a caliper and calculated according to V=(length×width^2)/2. In a Terminal deoxynucleotidyl transferase dUTP Nick End Labeling (TUNEL) assay, the tumors were removed from the mice, fixed in 10% neutral buffered formalin, and embedded in paraffin. The 4 μm thick tissue section was mounted on a positively charged glass slide, deparaffinized with xylene, and […] through a graded alcohol series. After antigen retrieval, the above tissue section was boiled in a citric acid buffer (pH 6.0) and immunofluorescence was performed. In situ TUNEL was performed on the above tissue section using a TUNEL kit (Roche Applied Sciences, Penzberg, GER), and the images thereof were obtained using a confocal scanning microscope.

[6] = tested on: AGTR1-overexpressed SK-BR-3; assay: Confocal imaging of Cy3-coupled aptamers binding to / internalizing in AGTR1-positive cells; assay type: cell-based, human; conditions: 500 nM Cy3-coupled aptamer, 10^7 cells, room temperature; compared among SEQ ID NOS:1 to 6
Method: 1) 100 μl (10^7 cells) of target cells, namely AGTR1-overexpressed SK-BR-3, and 100 μl of 500 nM aptamer were reacted at room temperature and imaged using a confocal microscope. The aptamers have respective base sequences of SEQ ID NOS:1 to 6, the end of each of which is coupled with a fluorescence dye Cy3.

| Compound | expression of p-His3 (confocal, FIG. 4) [1] | expression of p-His3 (confocal, FIG. 4) [2] | apoptosis rate (sub-G1%) (FIG. 6) [3] | apoptosis rate (sub-G1%) (FIG. 6) [4] | growth of tumors (tumor volume, FIG. 7) [5] | internalization / fluorescence intensity (confocal, FIG. 3) [6] |
| --- | --- | --- | --- | --- | --- | --- |
| COc1cc2cc(c1Cl)N(C)C(=O)C[C@H](OC(=O)[C@H](C)N(C)C(C)=O)[C@]1(C)O[C@H]1[C@H](C)[C@@H]1C[C@@](O)(NC(=O)O1)[C@H](OC)/C=C/C=C(\C)C2 [DM1, maytansine] | observed regardless of whether HER2 was expressed or not | observed regardless of whether HER2 was expressed or not | relatively high | relatively high |  |  |
| Aptamer: DNA aptamer 5'-AAGTCGTCTTTGCCAAATACCGGTCTGTCGGTGGGTATTG-3' (SEQ ID NO:4) with thiol group introduced at the 3' terminus (DNA, 3' {SH}, backbone not given here) |  |  | remarkably low | remarkably low | partially inhibited |  |
| SEQ ID NO:4: ssDNA aptamer AAGTCGTCTTTGCCAAATACCGGTCTGTCGGTGGGTATTG; Cy3-coupled in the confocal test (DNA, backbone not given here; further chemistry not fully specified) |  |  |  |  |  | strongest fluorescence intensity |
